Tests used:
serine racemase [1] = target: T1, serine racemase (Rattus norvegicus, UniProt Q76EQ0); assay: Inhibition of serine racemase by PLP inhibitors and sulfhydryl oxidation; PLP requirement; assay type: biochemical; settings: for Effect on enzyme activity (PLP inhibitors): 37° C., pH 8.0, 20 mM L-serine, 2 mM DTT, 10 μM PLP, different concentrations (FIG. 4A)
T1 construct: the rat brain enzyme we have purified; from tissue; host or cells: rat brain (10–14 day old Sprague-Dawley rats)
T1 sequence (Q76EQ0 1-333): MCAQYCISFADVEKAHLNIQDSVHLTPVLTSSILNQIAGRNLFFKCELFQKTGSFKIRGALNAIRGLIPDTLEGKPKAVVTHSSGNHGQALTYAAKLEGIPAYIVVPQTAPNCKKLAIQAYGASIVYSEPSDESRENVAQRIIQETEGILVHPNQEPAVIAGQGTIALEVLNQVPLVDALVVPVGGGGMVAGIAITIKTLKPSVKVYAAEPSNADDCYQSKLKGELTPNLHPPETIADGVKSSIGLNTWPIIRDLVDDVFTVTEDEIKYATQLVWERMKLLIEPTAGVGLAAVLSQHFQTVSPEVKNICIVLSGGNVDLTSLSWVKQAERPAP
Description: FIG. 4. inhibition of serine racemase by PLP inhibitors and sulfhydryl oxidation. FIG. 4A. Enzyme activity was monitored at 37° C. in a medium containing 50 mM Tris-HCl (pH 8.0), 20 mM L-serine, 40–100 μg/ml purified enzyme, 1 mM EDTA, 2 mM DTT, 10 μM pyridoxal 5′-phosphate and different concentrations of either aminooxyacetic acid (◯) or hydroxylamine (●). FIG. 4B. Reaction medium and conditions were as described in A, except that DTT was omitted from the last step of the enzyme preparation. The enzyme was preincubated for 10 minutes in the presence of different concentrations of oxidized glutathione (GSSG).
D-serine formation was monitored by a chemiluminescent assay that specifically detects D-serine. Racemase activity was performed in the presence of 50 mM Tris-HCl (pH 8.0), 18 μl enzyme extract, 1 mM EDTA, 2 mM DTT, 15 μM pyridoxal 5′-phosphate (PLP), and 20 mM L-serine. After 0.5 to 8 hours incubation at 37° C., the reaction was terminated by the addition of trichloroacetic acid (TCA) to a final concentration of 5%. Blanks employed boiled enzyme extract. The precipitated protein was removed by centrifugation, and the supernatant was extracted 2 times with 1 ml of water-saturated diethyl ether to remove TCA. D-serine concentration was determined by incubation of the samples with D-amino acid oxidase, which specifically degrades D-amino acids, generating an α-keto acid, NH3 and hydrogen peroxide (16).
The generation of hydrogen peroxide was quantitated by the use of peroxidase and luminol, which emits light. A 10 μl sample aliquot was added to 100 μl of medium containing 100 mM Tris-HCl (pH 8.8), 10 U/ml peroxidase, and 8 μM luminol. After a 10 to 20 minute delay required to decrease the nonspecific luminol luminescence, 10 μl of D-amino acid oxidase (75 U/ml) were added, and the tubes were gently mixed with a pipette tip. Maximum luminescence was recorded after 10 to 15 minutes at room temperature using a Monolight 2010 luminometer (Analytical Luminescence Laboratory). The amount of D-serine in each sample was calculated by comparison with standard curves. The measurements were reliable in the range of 50 to 2000 pmol D-serine per sample. […] Alternatively, amino acid enantiomers were separated by high performance liquid chromatography (HPLC) using a carbon 18 reverse phase column (RP18 Spheri-5, 22 cm×4.6 mm, Perkin Elmer) with fluorimetric detection after derivatization with L-Boc-cys and OPA, as described (17). The results obtained with chemiluminescent assay were identical to those obtained using HPLC. […]
We wondered whether conversion of L to D-serine might be a by-product of a different enzyme activity with non-enzymatic racemization giving rise to D-serine. Accordingly, we monitored by HPLC levels of L and D-serine at different incubation times (Table 2). […]

[2] = target: NMDA receptor "glycine site" (Homo sapiens, UniProt Q05586); settings: reference 14; cited from earlier work
serine racemase [3] = target: T1, serine racemase; assay: Substrate specificity of serine racemase; assay type: biochemical; settings: for Specific activity / % control: 20 mM L-amino acids; for Specific activity: 37° C., pH 8.0, 8 h, HPLC; for % control: activity relative to L-serine, 8 h; for Racemase activity with the amino acid: purified enzyme
Description: (§1) The generation of hydrogen peroxide was quantitated by the use of peroxidase and luminol, which emits light. A 10 μl sample aliquot was added to 100 μl of medium containing 100 mM Tris-HCl (pH 8.8), 10 U/ml peroxidase, and 8 μM luminol. After a 10 to 20 minute delay required to decrease the nonspecific luminol luminescence, 10 μl of D-amino acid oxidase (75 U/ml) were added, and the tubes were gently mixed with a pipette tip. Maximum luminescence was recorded after 10 to 15 minutes at room temperature using a Monolight 2010 luminometer (Analytical Luminescence Laboratory). The amount of D-serine in each sample was calculated by comparison with standard curves. The measurements were reliable in the range of 50 to 2000 pmol D-serine per sample. […] Alternatively, amino acid enantiomers were separated by high performance liquid chromatography (HPLC) using a carbon 18 reverse phase column (RP18 Spheri-5, 22 cm×4.6 mm, Perkin Elmer) with fluorimetric detection after derivatization with L-Boc-cys and OPA, as described (17). The results obtained with chemiluminescent assay were identical to those obtained using HPLC.
The presence of trace amounts of D-serine in the commercial L-serine reagent generates high blank values. Thus, the stock solution of L-serine (100 mM) was routinely pre-treated for 3 days with 30 units of D-amino acid oxidase and 500 units of catalase to remove any D-serine contaminant. The enzymes were precipitated by the addition of 5% TCA. After removal of TCA by extraction with diethyl ether, the L-serine solution was neutralized with NaOH and could be used without further purification, being virtually free of any D-serine contaminant. The same purification procedure was applied for L-alanine and L-threonine.
Additionally, we examined the purified enzyme for the presence of other enzyme activities which might indirectly contribute to D-serine formation. We found no evidence for serine: pyruvate aminotransferase activity, as L-serine levels were not altered in the presence of pyruvate. […] There is no evidence for serine dehydratase activity which would be associated with a marked decrease in L-serine levels.

serine racemase [4] = target: T1, serine racemase; assay: Absorption spectra of purified serine racemase; settings: 70 μg/ml enzyme preincubated 10 minutes with 1 mM AOAA (FIG. 5)
Description: FIG. 5. Absorption spectra of purified serine racemase. Purified enzyme (70 μg/ml) was preincubated for 10 minutes in medium containing 10 mM KPi (pH 7.2), 2 mM DTT, 1 mM EDTA, 10 μM PLP, either in the absence (Control) or in the presence of 1 mM aminooxyacetic acid (AOAA). The distinct peaks of absorbance at 420 and 340 nm were not observed in the presence of buffer alone or when bovine serum albumin was used instead of serine racemase.
For most applications the purified protein was further concentrated using centriplus 30. Protein concentration was determined with Coomassie plus protein assay reagent (Pierce). Enzyme-bound PLP was determined at room temperature by recording the absorbance of the purified protein in the range of 500 to 280 nm using a Lambda Bio spectrophotometer (Perkin Elmer).
Examination of the absorption spectrum of the enzyme confirms the importance of PLP. […] The peak at 420 nm, corresponding to a Schiff's base complex of PLP with an active site lysine, is abolished by treatment with AOAA (FIG. 5).

serine racemase [5] = target: T1, serine racemase; assay: Racemization of L-serine over time, L- and D-serine by HPLC; assay type: biochemical
Description: as §1
We wondered whether conversion of L to D-serine might be a by-product of a different enzyme activity with non-enzymatic racemization giving rise to D-serine. Accordingly, we monitored by HPLC levels of L and D-serine at different incubation times (Table 2). Increases in formation of D-serine are paralleled by stoichiometric decreases in levels of L-serine, making it unlikely that L-serine is converted to any other compound by the enzyme.

[6] = time 0, 4 mM L-serine, 40 μg/ml purified enzyme, 37° C.

oxidized glutathione
Effect on enzyme activity (sulfhydryl oxidation) (serine racemase [1]; DTT omitted, enzyme preincubated for 10 minutes with different concentrations (FIG. 4B)): markedly reduces enzyme activity

N[C@H](CO)C(=O)O [D-serine]
Potency relative to glycine at the glycine site [2]: up to three times more potent than glycine

N[C@@H](CC(=O)O)C(=O)O [L-aspartate]
Specific activity (serine racemase [3]): 0 µmol/mg/h
% control (serine racemase [3]): 0%
Racemase activity with the amino acid (serine racemase [3]): no activity

NOCC(=O)O [Aminooxyacetic acid, aminooxyacetic acid]
Effect on enzyme activity (PLP inhibitors) (serine racemase [1]): inhibit enzyme activity
Absorption peak at 420 nm of the enzyme (Schiff's base complex of PLP) (serine racemase [4]): abolished

NO [hydroxylamine]
Effect on enzyme activity (PLP inhibitors) (serine racemase [1]): inhibit enzyme activity

C[C@@H](O)[C@H](N)C(=O)O [L-threonine]
Specific activity (serine racemase [3]): 0 µmol/mg/h
Racemase activity with the amino acid (serine racemase [3]): no activity

C[C@H](N)C(=O)O [L-alanine]
Specific activity (serine racemase [3]): 0.012 µmol/mg/h

Cc1ncc(COP(=O)(O)O)c(C=O)c1O [PLP, pyridoxal 5′-phosphate]
Enzyme activity after dialysis without PLP, on addition of PLP (serine racemase [1]; dialysis for 16 hours against 1,000 volumes of purification buffer without PLP): can be restored by the addition of PLP

N[C@@H](CO)C(=O)O [L-serine]
[D-sertne] (serine racemase [5]; [6]): 0.0007 mM
[L-serine] (serine racemase [5]; [6]): 4.00 mM
[D-sertne] (serine racemase [5]; time 0.5 h): 0.042 mM
[L-serine] (serine racemase [5]; time 0.5 h): 3.96 mM
[D-sertne] (serine racemase [5]; time 1 h): 0.101 mM
[L-serine] (serine racemase [5]; time 1 h): 3.93 mM
[D-sertne] (serine racemase [5]; time 4 h): 0.342 mM
[L-serine] (serine racemase [5]; time 4 h): 3.65 mM
Specific activity (serine racemase [3]): 4.8 µmol/mg/h
% control (serine racemase [3]): 100%

— patent publication US6984484B1, “Mammalian serine racemase” (The Johns Hopkins University, priority 1999, dated 2006)
